16 compounds from US11229657B2, “Targeting hypoxic cancer stem cells (CSCs) with doxycycline: implications for improving anti-angiogenic therapy” (LUNELLA BIOTECH, INC., priority 2017, dated 2022) can be followed below.

What all share (assay type): cell-based
For one test, the system named is CSC propagation. As to the kind of experiment: IC-50s of metabolic agents for inhibiting CSC propagation (Table 3). The note with it: read-out: IC-50 for inhibiting CSC propagation. The protocol: Glycolysis is required to provide additional TCA cycle intermediates for the mitochondrial processing of Acetyl-CoA. […] Briefly, 2-deoxy-D-glucose (2-DG) or ascorbic acid were dissolved in culture medium. […] Bonuccelli et al. Oncotarget, 8: 20667-20678 (2017). […] 15, 2017, and Patent Cooperation Treaty (PCT) Patent Application PCT/US2018/022403, filed Mar. 14, 2018, the entireties of which are incorporated herein by reference; mitoketoscins, such as those disclosed in U.S. Provisional Patent Application No. 62/524,829, filed Jun. 26, 2017, the entirety of which is incorporated herein by reference; mitoflavoscins, such as those disclosed in U.S. Provisional Patent Application No. 62/576,287, filed Oct. 24, 2017, the entirety of which is incorporated herein by reference; TPP-compounds (e.g., 2-butene-1,4-bis-TPP), such as those disclosed in U.S. Provisional Patent Application No. 62/590,432, filed Nov. 24, 2017, the entirety of which is incorporated herein by reference; mDIVI1, such as those disclosed in U.S. Provisional Patent Application No. 62/608,065, filed Dec. 20, 2017, the entirety of which is incorporated herein by reference; CAPE (caffeic acid phenyl ester); antimitoscins, such as those disclosed in 62/508,702, filed May 19, 2017, the entirety of which is incorporated herein by reference; repurposcins such as those disclosed in U.S. Provisional Patent Application No. 62/593,372, filed Dec. 1, 2017, the entirety of which is incorporated herein by reference; other known mitochondrial inhibitors.

The subject of test [1] is MCF7 cells. As to the kind of experiment: Mammosphere formation assay (CSC activity/propagation). The note with it: for IC50: Homo sapiens, MCF7, Valproic acid-augmented conditions, read-out: IC-50, Valproic acid-augmented CSC propagation; for IC50 / Valproic acid-augmented CSC propagation (mammosphere formation): FIG. 12C; for Valproic acid-augmented CSC propagation (mammosphere formation): glycolysis inhibitors; for basal and Valproic acid-augmented CSC propagation (mammosphere formation): FIG. 12A-B.
Description: Briefly, a single cell suspension of MCF7 cells previously exposed to normoxia (21% O2) or hypoxia (1% O2) for 6 h, 72 h or 96 h was prepared using enzymatic (lx Trypsin-EDTA, Sigma Aldrich) and manual disaggregation (25-gauge needle). Cells were plated at a density of 500 cells/cm^2 in mammosphere medium (DMEM-F12/B27/20-ng/ml EGF/PenStrep) in nonadherent conditions, in culture dishes coated with (2-hydroxyethylmethacrylate) (poly-HEMA, Sigma), in the presence of treatments. Cells were grown for 5 days and maintained in a humidified incubator at 37° C. at an atmospheric pressure in 5% (v/v) carbon dioxide/air. After five days of culturing, spheres greater than 50 μm in diameter were counted using an eye piece graticule, and the percentage of cells plated which formed spheres was calculated. Mammosphere assays were performed in triplicate and repeated three times independently.

The test system of test [2] is MCF7 cells. The experiment in a line: ALDH activity by FACS (ALDEFLUOR kit). The note with it: 2.5 mM; FIGS. 11C-D. The protocol:
The present approach further includes methods of analyzing the effects of hypoxia on CSCs by examining relative changes of CSC markers. For example, aldehyde dehydrogenase (ALDH) activity is routinely used as a marker for CSCs. It should be appreciated by those in the art that other CSC markers may be used. ALDH activity was assessed by FACS analysis in MCF7 cells cultured for 72 hours in normoxia (21% 02) or hypoxia (1% 02). The ALDEFLUOR kit (StemCell Technologies) was used to isolate the population with high ALDH enzymatic activity by FACS (Fortessa, BD Bioscence). Briefly, 1×10^5 MCF7 cells were incubated in 1 ml ALDEFLUOR assay buffer containing ALDH substrate (5 μl/ml) for 40 minutes at 37° C. In each experiment, a sample of cells was stained under identical conditions with 30 μM of diethylaminobenzaldehyde (DEAB), a specific ALDH inhibitor, as a negative control. The ALDEFLUOR-positive population was established in according to the manufacturer's instructions and was evaluated in 3×10^4 cells. Data analysis was performed using FlowJo software (Tree star Inc.).

In test [3] the test system is MCF7 cells. The experiment in a line: Mitochondrial mass by FACS with MitoTracker Deep-Red-FM. The note with it: increasing concentrations 0, 1, 2.5 and 5 mM; FIG. 11A. As for the experimental part:
The inventors examined the effects of chronic hypoxia and oxidative stress on the propagation of breast CSCs using MCF7 cells as a model system. It should be appreciated that other model systems may be used. Briefly, MCF7 cells were obtained from ATCC and cultured in DMEM (Sigma Aldrich). For hypoxic testing, MCF7 cells were cultured in low glucose DMEM in a multi-gas N2/CO2 hypoxic chamber at 1% 02. In parallel, MCF7 cells were cultured in low glucose DMEM at 21% 02 to serve as a normoxic control. […] Next, the MCF7 cells were trypsinized and subjected to fluorescence-activated cell sorting (FACS) with MitoTracker Deep-Red-FM (Life Technologies). MitoTracker Deep Red localizes to mitochondria regardless of mitochondrial membrane potential. Cells were incubated with pre-warmed MitoTracker staining solution (diluted in PBS/CM to a final concentration of 10 nM) for 30-60 min at 37° C. All subsequent steps were performed in the dark. Cells were washed in PBS, harvested, re-suspended in 300 μL of PBS and then analyzed by flow cytometry (Fortessa, BD Bioscience). Data analysis was performed using FlowJo software (Tree star Inc.). […] FIG. 2F is a representative FACS tracing showing 96 hours of hypoxia increased mitochondrial mass. The effects of hypoxia treatment were confirmed using immunoblot analysis with TOMM20, a marker of mitochondrial mass.

Read-outs that look alike come from different tables or passages of the source. Bounds are passed on as bounds.

With `O=CC[C@@H](O)[C@H](O)[C@H](O)CO` [2-DG, 2-deoxy-D-glucose], the IC50 in the test with CSC propagation (Table 3, values in mM) lay within 10 to 20 mM. Moreover, in the test on MCF7 cells [1], the IC50 amounted to 1000 µM and the “Valproic acid-augmented CSC propagation (mammosphere formation)” value is reported as “sufficient to inhibit”.
As to `O=C1C(O)=C([C@H]2CC[C@H](c3ccc(Cl)cc3)CC2)C(=O)c2ccccc21` [Atovaquone], the IC50 in the test with CSC propagation (Table 3, values in mM) worked out at 0.001 mM.
`CC[C@H]1OC(=O)[C@H](C)[C@@H](O[C@H]2C[C@@](C)(OC)[C@@H](O)[C@H](C)O2)[C@H](C)[C@@H](O[C@@H]2O[C@H](C)C[C@H](N(C)C)[C@H]2O)[C@](C)(O)C[C@@H](C)CN(C)[C@H](C)[C@@H](O)[C@]1(C)O` [Azithromycin]: the IC50 with CSC propagation (Table 3, values in mM) is 0.05 to 0.1 mM.
The same measure, in the same setting: the result for `COc1nc2ccc(Br)cc2cc1[C@@H](c1ccccc1)[C@@](O)(CCN(C)C)c1cccc2ccccc12` [Bedaquiline] reads 0.001 mM; that for `COc1ccc2cc3[n+](cc2c1OC)CCc1cc2c(cc1-3)OCO2` [Berberine], 0.001 mM.
For `CCN(CC)CCCC(C)Nc1ccnc2cc(Cl)ccc12` (stereo not shown) [Chloroquine], the IC50 in the test on CSC propagation was below 0.025 mM.
As for `C[C@H]1c2cccc(O)c2C(=O)C2=C(O)[C@]3(O)C(=O)C(C(N)=O)=C(O)[C@@H](N(C)C)[C@@H]3[C@@H](O)[C@@H]21` [Doxycycline], the IC50 in the test on CSC propagation (Table 3, values in mM) was 0.005 mM.
`CCOC(=O)[C@@]1(CCCCCCOc2ccc(Cl)cc2)CO1` [Etomoxir]: the IC50 in the test on CSC propagation (Table 3, values in mM) is below 0.2 mM. For the same compound, in the test with MCF7 cells [1], the “basal and Valproic acid-augmented CSC propagation (mammosphere formation)” value was “inhibit”.
Take `CCc1c2c(nc3ccc(OC(=O)N4CCC(N5CCCCC5)CC4)cc13)-c1cc3c(c(=O)n1C2)COC(=O)[C@]3(O)CC` [Irinotecan]: the IC50 in the test on CSC propagation (Table 3, values given with nM) worked out at 0.0005 mM.
The same measure, in the same setting: the figure for `O=C(Nc1ccc([N+](=O)[O-])cc1Cl)c1cc(Cl)ccc1O` [Niclosamide] is 0.0001 mM.
For the compound `CC(=O)O[C@H]1C(=O)[C@@]2(C)[C@H]([C@H](OC(=O)c3ccccc3)[C@]3(O)C[C@H](OC(=O)[C@H](O)[C@@H](NC(=O)c4ccccc4)c4ccccc4)C(C)=C1C3(C)C)[C@]1(OC(C)=O)CO[C@@H]1C[C@@H]2O` [Paclitaxel], the “CSC resistance to treatment (measured by mammosphere formation)” value in the test on MCF7 cells [1] (MCF7 cells, FIGS. 5A-B) was “a fraction of CSCs is resistant”.
As to `C1CCC(C(CC2CCCCN2)C2CCCCC2)CC1` (stereo not shown) [Perhexiline], the IC50 in the test with CSC propagation (Table 3, values given with nM) was below 0.0001 mM. Moreover, in the test on MCF7 cells [1], the “basal and Valproic acid-augmented CSC propagation (mammosphere formation)” value is listed as “inhibit”.
For the compound `CNC(=O)c1cc(Oc2ccc(NC(=O)Nc3ccc(Cl)c(C(F)(F)F)c3)cc2)ccn1` [Sorafenib], in the test with CSC propagation (Table 3, values in mM), the IC50 lay within 0.0005 to 0.001 mM.
For the compound `CC(C)(C)C(O)/C=C/c1ccc2c(c1)OCO2` (stereo not shown) [Stiripentol], in the test with CSC propagation (Table 3, values in mM), the IC50 is 0.01 to 0.05 mM.
Regarding `CCCC(CCC)C(=O)O` [Valproic acid], in the test on MCF7 cells [2], the “increase in ALDH activity” value is reported as above 1.5 fold. Moreover, in the test with MCF7 cells [3], the “increase in mitochondrial mass” value was “up to 3 fold”. Further, the mammosphere formation entry in the test on MCF7 cells [1] (MCF7 cells, FIG. 11B) is “increases”.
Turning to `O=C1O[C@H]([C@@H](O)CO)C(O)=C1O` [Vitamin C, ascorbic acid], in the test on CSC propagation (Table 3, values in mM), the IC50 came to 1 mM. Also, in the test on MCF7 cells [1], the IC50 is around 500 µM and the “Valproic acid-augmented CSC propagation (mammosphere formation)” value is “sufficient to inhibit”. For the same compound, the “potency under Valproic acid-augmented conditions compared to basal conditions” value in the test with MCF7 cells [1] (versus previously published results under basal conditions (Bonuccelli et al. 2017)) is listed as “two times as potent”.
